Our source for the Ki values is patent US8877745B2, “CCR2 receptor antagonists, method for producing the same, and use thereof as medicaments” (Boehringer Ingelheim International GmbH, priority 2010, dated 2014).

The target in the test is T1, CCR2 (Homo sapiens, UniProt P41597).
T1 construct: Membranes were prepared from THP-1 cells; endogenous in cells; host or cells: THP-1 (human acute monocytic leukaemia cells), membrane preparation
T1 sequence (P41597 whole entry): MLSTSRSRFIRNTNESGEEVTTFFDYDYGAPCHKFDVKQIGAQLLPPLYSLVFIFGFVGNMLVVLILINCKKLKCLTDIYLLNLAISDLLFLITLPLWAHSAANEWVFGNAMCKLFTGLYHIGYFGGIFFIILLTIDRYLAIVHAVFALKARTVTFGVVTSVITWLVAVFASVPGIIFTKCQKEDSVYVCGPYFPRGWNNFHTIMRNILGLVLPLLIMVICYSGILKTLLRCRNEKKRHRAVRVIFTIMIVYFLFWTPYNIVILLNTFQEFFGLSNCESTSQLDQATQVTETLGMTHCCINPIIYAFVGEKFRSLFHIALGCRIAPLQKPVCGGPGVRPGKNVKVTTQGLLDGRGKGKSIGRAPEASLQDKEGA
The test can be described thus: CCR2 receptor membrane binding assay ([125I]MCP-1, THP-1 cell membranes, SPA beads). Conditions: THP-1 membranes, [125I]MCP-1, bound radioactivity determined after 8 h; read-out: hKi. The protocol: The above exemplary substances have been tested for binding to CCR2 using a binding assay as outlined herein below:
THP-1 cells (human acute monocytic leukaemia cells) were cultured under standardized conditions at 37° C. and 5% CO2 in a humidified incubator. THP-1 cells were cultivated in RPMI 1640 medium (Gibco 21875) containing 1% MEM-NEAA (Gibso 11140) 2 mM L-glutamine, 1.5 g/L sodium bicarbonate, 4.5 g/L glucose, 10 mM HEPES and 1.0 mM sodium pyruvate, 90%; 10% fetal calf serum (FCS Gibco 10500-064).
Membranes were prepared from THP-1 cells. THP-1 cells were centrifuged at 300×g at 4° C. for 10 min. The cell pellet was resuspended in Phosphate Buffer Saline (PBS, including 10 μM Pefabloc and a protease inhibitor mix ‘complete’, Boehringer Mannheim (1 tablet/50 ml)), to a concentration of […]. The membrane preparation was performed by disrupting the cells by nitrogen […] (at 50 bar, for 1 h) in a “Nitrogen Bombe” (Parr Instrument). Cell debris was removed by centrifugation (800×g at 4° C., 1 min). The supernatant was centrifuged at 80000×g, 4° C. for 30 min to sediment the cell membranes. Usually 50 mg of protein (Bradford assay) were yielded from 1×10E9 cells. The membranes were resuspended in 25 mM HEPES, 25 mM MgCl2, 1 mM CaCl2, 10% Glycerine for storage in aliquots at −80° C. in 25 mM HEPES, 25 mM MgCl2, 1 mM CaCl2, 10% Glycerine and stored at −80° C.
Receptor Membrane Binding Assay:
Perkin Elmer NEX 332 Jod 125 MCP-1, Stock: 2200 Ci/mmol solved in […] assay buffer, stored at −20° C. THP-1 membrane were adjusted with 25 mM HEPES, pH 7.2; 5 mM MgCl2; 0.5 mM CaCl2; 0.2% BSA assay buffer to a concentration of 2.5 μg/15 μl. Amersham Biosciences PVT-WGA Beads (RPNQ0001) were adjusted with assay buffer to a concentration of 0.24 mg/30 μl. For preparation of the membrane-bead-suspension membranes and beads were incubated for 30 min at RT under rotation (60 rpm) with a ratio of 1:2. Test compounds dissolved in 100% DMSO to a concentration of 10 mM and are further diluted with 100% DMSO to 1 mM. All additional compound dilutions were obtained with assay buffer, final 1% DMSO. Compounds, membrane-bead-suspension and [^125I]MCP-1 (ca. 25000 cpm/10 μl) were incubated. Bound radioactivity was determined by scintillation counter after 8 h. Determination of affinity of test compounds (dissociation constant hKi) is calculated by iterative fitting of experimental data using the “easy sys” program, which is based on law of mass action (Schittkowski K. (1994), Numerische Mathematik, Vol. 68, 129-142).
Turning to `Cc1c(C(=O)N2CCC(N3CCC(N(C)S(C)(=O)=O)CC3)CC2)ncnc1N1CCc2ccc(C(F)(F)F)cc2C1` [Example 1], the Ki turned out to be 15 nM.

`COC1COCCC1NC1CCN(C(=O)c2ncnc(N3CCc4cccc(C(F)(F)F)c4C3)c2C)CC1` (centres unmarked) [Example 2]: the Ki worked out at 507 nM.

`Cc1c(C(=O)N2CCC(N3CCC(N(C)S(C)(=O)=O)CC3)CC2)ncnc1N1CCOC(c2ccc(Cl)cc2)C1` (centres unmarked) [Example 3]: the Ki turned out to be 3690 nM.

Consider `COC1COCCC1NC1CCN(C(=O)c2ncnc(N3CCOC(c4ccc(Cl)cc4)C3)c2C)CC1` (centres unmarked) [Example 4], for which the Ki was 1090 nM.

Take `COC1COCCC1NC1CCN(C(=O)c2ncnc(N3CCOC(c4ccccc4)C3)c2C)CC1` (centres unmarked) [Example 5]: the Ki is 4170 nM.

For `Cc1c(C(=O)N2CCC(N3CCC(N(C)S(C)(=O)=O)CC3)CC2)ncnc1N1CCC2(CCc3ccccc32)CC1` [Example 6], the Ki was 1640 nM.

Regarding `COC1COCCC1NC1CCN(C(=O)c2ncnc(N3CCc4ccc(F)cc4C3)c2C)CC1` (centres unmarked) [Example 7], the Ki was found to be 27 nM.

Take `COC1COCCC1NC1CCN(C(=O)c2ncnc(N3CCc4ccc(OC(F)(F)F)cc4C3)c2C)CC1` (centres unmarked) [Example 8]: the Ki stood at 11 nM.

On to `COC1COCCC1NC1CCN(C(=O)c2ncnc(N3CCCC(c4cccc(C(F)(F)F)c4)C3)c2C)CC1` (centres unmarked) [Example 9], for which the Ki is 2150 nM.

Regarding `COC1COCCC1NC1CCN(C(=O)c2ncnc(N3CCc4ccc(Cl)cc4C3)c2C)CC1` (centres unmarked) [Example 10], the Ki is 14 nM.

Take `Cc1c(C(=O)N2CCC(N3CCC(N(C)S(C)(=O)=O)CC3)CC2)ncnc1N1CCC2(C=Cc3ccccc32)CC1` [Example 11]: the Ki was found to be 2160 nM.

Turning to `COC1COCCC1NC1CCN(C(=O)c2ncnc(N3CCCC(c4cccc(F)c4)C3)c2C)CC1` (centres unmarked) [Example 12], the Ki was 1100 nM.

Take `COC1COCCC1NC1CCN(C(=O)c2ncnc(N3CCC(c4ccc(C)cc4)CC3)c2C)CC1` (centres unmarked) [Example 13]: the Ki came to 739 nM.

In the case of `COc1ccc(C2CCN(c3ncnc(C(=O)N4CCC(NC5CCOCC5OC)CC4)c3C)CC2)cc1` (centres unmarked) [Example 14], the Ki was found to be 1610 nM.

With `COC1COCCC1NC1CCN(C(=O)c2ncnc(N3CCC(c4cccc(C)c4)CC3)c2C)CC1` (centres unmarked) [Example 15], the Ki is 732 nM.

Turning to `COC1COCCC1NC1CCN(C(=O)c2ncnc(N3CCC(c4ccccc4)CC3)c2C)CC1` (centres unmarked) [Example 16], the Ki was 1510 nM.

Regarding `Cc1c(C(=O)N2CCC(N3CCC(N(C)S(C)(=O)=O)CC3)CC2)ncnc1N1CCC(c2ccc(C(F)(F)F)cc2)CC1` [Example 17], the Ki was 1050 nM.

On to `COC1COCCC1NC1CCN(C(=O)c2ncnc(N3CCC(c4ccc(Cl)cc4)CC3)c2C)CC1` (centres unmarked) [Example 18], for which the Ki came to 331 nM.

Consider `COC1COCCC1NC1CCN(C(=O)c2ncnc(N3CCC4(CC3)OCc3ccccc34)c2C)CC1` (centres unmarked) [Example 19], for which the Ki stood at 3620 nM.

For `Cc1c(C(=O)N2CCC(N3CCC(N(C)S(C)(=O)=O)CC3)CC2)ncnc1N1CCC(c2cccc(C(F)(F)F)c2)CC1` [Example 20], the Ki came out at 480 nM.

For `COc1ccc(C2CCN(c3ncnc(C(=O)N4CCC(N5CCC(N(C)S(C)(=O)=O)CC5)CC4)c3C)CC2)cc1` [Example 21], the Ki came to 4410 nM.

Consider `Cc1c(C(=O)N2CCC(N3CCC(N(C)S(C)(=O)=O)CC3)CC2)ncnc1N1CCC(c2cccc(F)c2)CC1` [Example 22], for which the Ki was found to be 3790 nM.

On to `COC1COCCC1NC1CCN(C(=O)c2ncnc(N3CCC4(C=Cc5ccccc54)CC3)c2C)CC1` (centres unmarked) [Example 23], for which the Ki was determined as 455 nM.

Turning to `Cc1ccc(C2CCN(c3ncnc(C(=O)N4CCC(N5CCC(N(C)S(C)(=O)=O)CC5)CC4)c3C)CC2)cc1` [Example 24], the Ki came out at 1300 nM.

`Cc1c(C(=O)N2CCC(N3CCC(N(C)S(C)(=O)=O)CC3)CC2)ncnc1N1CCC(c2ccccc2C(F)(F)F)CC1` [Example 25]: the Ki was found to be 657 nM.

In the case of `Cc1c(C(=O)N2CCC(N3CCC(N(C)S(C)(=O)=O)CC3)CC2)ncnc1N1CCC(c2ccc(Cl)cc2)CC1` [Example 26], the Ki came out at 1970 nM.

For the compound `Cc1c(C(=O)N2CCC(N3CCC(N(C)S(C)(=O)=O)CC3)CC2)ncnc1N1CCC(c2cccc(Cl)c2)CC1` [Example 27], the Ki was 661 nM.

`Cc1c(C(=O)N2CCC(N3CCC(N(C)S(C)(=O)=O)CC3)CC2)ncnc1N1CCC(c2ccccc2)CC1` [Example 28]: the Ki is 3680 nM.

Regarding `COC1COCCC1NC1CCN(C(=O)c2ncnc(N3CCC(c4ccccc4C(F)(F)F)CC3)c2C)CC1` (centres unmarked) [Example 29], the Ki came to 241 nM.

Turning to `Cc1cccc(C2CCN(c3ncnc(C(=O)N4CCC(N5CCC(N(C)S(C)(=O)=O)CC5)CC4)c3C)CC2)c1` [Example 30], the Ki was 1360 nM.

Turning to `COC1COCCC1NC1CCN(C(=O)c2ncnc(N3CCCC(c4cccc(Cl)c4)C3)c2C)CC1` (centres unmarked) [Example 31], the Ki was 1710 nM.

On to `COC1COCCC1NC1CCN(C(=O)c2ncnc(N3CCCC(c4ccc(F)cc4)C3)c2C)CC1` (centres unmarked) [Example 32], for which the Ki stood at 3600 nM.

Turning to `COC1COCCC1NC1CCN(C(=O)c2ncnc(N3CCCC(c4ccc(C)cc4)C3)c2C)CC1` (centres unmarked) [Example 33], the Ki was determined as 2110 nM.

As for `Cc1c(C(=O)N2CCC(N3CCC(N(C)S(C)(=O)=O)CC3)CC2)ncnc1N1CCCC(c2ccc(C(F)(F)F)cc2)C1` (centres unmarked) [Example 34], the Ki was found to be 4250 nM.

Take `Cc1c(C(=O)N2CCC(N3CCC(N(C)S(C)(=O)=O)CC3)CC2)ncnc1N1CCCCC1c1cccc(Cl)c1` (centres unmarked) [Example 35]: the Ki was found to be 2860 nM.

`COC1COCCC1NC1CCN(C(=O)c2ncnc(N3CCCC(c4ccc(C(F)(F)F)cc4)C3)c2C)CC1` (centres unmarked) [Example 36]: the Ki is 1270 nM.

In the case of `Cc1c(C(=O)N2CCC(N3CCC(NS(C)(=O)=O)CC3)CC2)ncnc1N1CCc2ccc(C(F)(F)F)cc2C1` [Example 37], the Ki is 18 nM.

`COC1COCCC1NC1CCN(C(=O)c2ncnc(N3CCc4c(Cl)cccc4C3)c2C)CC1` (centres unmarked) [Example 38]: the Ki amounted to 168 nM.

As for `COC1COCCC1NC1CCN(C(=O)c2ncnc(N3CCc4c(Cl)cc(Cl)cc4C3)c2C)CC1` (centres unmarked) [Example 39], the Ki was 49 nM.

In the case of `COC1COCCC1NC1CCN(C(=O)c2ncnc(N3CCc4ncc(Br)cc4C3)c2C)CC1` (centres unmarked) [Example 40], the Ki was 304 nM.

Turning to `COC1COCCC1NC1CCN(C(=O)c2ncnc(N3CCC(c4ccc(C(F)(F)F)cc4)CC3)c2C)CC1` (centres unmarked) [Example 41], the Ki worked out at 432 nM.

Take `COC1COCCC1NC1CCN(C(=O)c2ncnc(N3CCC(c4cccc(C(F)(F)F)c4)CC3)c2C)CC1` (centres unmarked) [Example 42]: the Ki was 230 nM.

In the case of `COC1COCCC1NC1CCN(C(=O)c2ncnc(N3Cc4ccc(C(F)(F)F)cc4C3)c2C)CC1` (centres unmarked) [Example 43], the Ki was 49 nM.

As to `Cc1c(C(=O)N2CCC(N3CCC(N(C)S(C)(=O)=O)CC3)CC2)ncnc1N1CCC(c2ccccc2F)C1` (centres unmarked) [Example 44], the Ki amounted to 3920 nM.

As for `Cc1c(C(=O)N2CCC(N3CCC(N(C)S(C)(=O)=O)CC3)CC2)ncnc1N1CCC(c2ccc(C(F)(F)F)cc2)C1` (centres unmarked) [Example 45], the Ki worked out at 1170 nM.

Take `Cc1c(C(=O)N2CCC(N3CCC(N(C)S(C)(=O)=O)CC3)CC2)ncnc1N1CCC(c2cccc(C(F)(F)F)c2)C1` (centres unmarked) [Example 46]: the Ki amounted to 1170 nM.

As to `Cc1c(C(=O)N2CCC(N3CCC(N(C)S(C)(=O)=O)CC3)CC2)ncnc1N1CCC(c2ccc(Cl)cc2)C1` (centres unmarked) [Example 47], the Ki amounted to 1100 nM.

On to `COC1COCCC1NC1CCN(C(=O)c2ncnc(N3CCC(c4ccc(C(F)(F)F)cc4)C3)c2C)CC1` (centres unmarked) [Example 48], for which the Ki is 159 nM.

For the compound `COC1COCCC1NC1CCN(C(=O)c2ncnc(N3CCC(c4ccccc4C(F)(F)F)C3)c2C)CC1` (centres unmarked) [Example 49], the Ki is 161 nM.

Consider `COC1COCCC1NC1CCN(C(=O)c2ncnc(N3CCC(c4ccccc4)C3)c2C)CC1` (centres unmarked) [Example 50], for which the Ki was 451 nM.

On to `COC1COCCC1NC1CCN(C(=O)c2ncnc(N3CCC(c4ccccc4F)C3)c2C)CC1` (centres unmarked) [Example 51], for which the Ki amounted to 405 nM.

As for `COC1COCCC1NC1CCN(C(=O)c2ncnc(N3CCC(c4cccc(C(F)(F)F)c4)C3)c2C)CC1` (centres unmarked) [Example 52], the Ki was determined as 270 nM.

As to `COC1COCCC1NC1CCN(C(=O)c2ncnc(N3CCC(c4ccc(Cl)cc4)C3)c2C)CC1` (centres unmarked) [Example 53], the Ki came to 172 nM.
